Tests used:
[1] = test system: MCF-7 cells; assay: Cell cycle analysis by flow cytometry; type: cell-based, human; conditions: 100 nM, 72 h
Description: Fig. 2 Proliferative response of cancer cells to indicated compounds. a–c the effect of concentrations of different compounds on the growth of the cells. Cells were cultured in 10% PRF-CT with E2 1 nM (MCF-7 and ZR-75-1) or without E2 (MDA-MB-231) for 3 days before plating. Cells were seeded in 96-well plates and 24 h later they were exposed to different concentrations (1 nM– 10 μM) of compounds for 6 days (MCF-7 and ZR-75-1) or 3 days (MDA-MB-231). Cell growth was measured as described in the “Materials and methods”. The proliferation of cells is expressed as the ratio of the cells compared with the control wells (untreated cells). d, e Influence of different compounds on the cell cycle of MCF-7 cells. MCF-7 cells were cultured in 10% PRF-CT with E2 (1 nM) for 3 days before plating. Cells were seeded in six-well plates and, the next day, starved in PRF for 24 h. Cells were exposed to different compounds at a concentration of 100 nM for 72 h, and then subjected to cell-cycle analysis as described in “Materials and methods”. f MCF-7 cells on poly-L-lysine-coated glass coverslips were exposed to compounds (100 nM) in 10% PRF-CT with 1 nM E2 for 72 h. Control cells were treated with vehicle. DAPI stains DNA, and the secondary anti-mouse antibody to detect the antibody bound to Ki-67 is labeled with the cyanine dye Cy3. The cells were stained with DAPI (blue). Immunofluorescence staining of Ki-67 of cells was observed using fluorescence microscope. Red: Ki-67; blue: nucleus.Typical image is shown. Scale bars: 10 μm. Data represent a mean ± SEM of three independent experiments, each in triplicate; bars, SEM. *P ≤ 0.05 vs. control
Cell cycle kinetics were studied by flow cytometry. MCF-7 cells were cultured in 10% PRF–CT with 1 nM E2 for 3 days prior to seeding on six-well plates (10^5 cells/well). Following seeding of cells, cells were serum starved for 24 h, and then treated with media containing 100 nM of the test compounds for 72 h. Cell-cycle analysis was performed as described by Ando[20].

[2] = test system: AR protein in MCF-7 cells; assay: AR protein expression by western blot and immunofluorescence; type: cell-based, human; conditions: incubation 3 days
Description: Fig. 3 Influence of indicated compounds on the expression of the AR. […] AR protein expression was analyzed by western blot as described in “Materials and methods”. b The densitometric evaluation of the bands is calculated by ImageJ. The numbers represent the densitometric value relative to untreated control. […] Typical image is shown. Scale bars: 10 μm
Total cell proteins were obtained from 70% confluent cell cultures. Protein extracts of whole cells (50 μg) were denatured, separated by SDS–PAGE and transferred to polyvinylidene fluoride membranes. After blocking with 3% bovine serum albumin in Tris-buffered saline-Tween, membranes were probed overnight at 4 °C. […] After incubation with the appropriate secondary antibody, results were detected using ECL detection reagents. Immunoreactive bands were quantified by densitometry using ImageJ software.
MCF-7 cells were seeded on 24-well plates (2 × 10^4 cells/well) with a poly-L-lysine-coated glass coverslip per well in 10% PRF–CT. […] Cells were visualized with a ×40 objective and a Qimaging digital camera coupled to an Olympus X71 fluorescence microscope using a red fluorescent protein filter.

[3] = test system: cyclin D1 in MCF-7 cells

Row | SMILES | influence on the cell cycle (G1/G0 increase, S-phase decrease) [1] | expression of the AR protein [2] | Cyclin D1 mRNA and protein [3]
1 | C[C@]12CC[C@H]3[C@@H](CCC4=C(O)C(=O)CC[C@@]43C)[C@@H]1CC[C@@H]2O [4-OHT, 4-hydroxytestosterone] | most effective of the tested compunds | – | –
2 | C[C@]12CCC(=O)C[C@@H]1CC[C@@H]1[C@@H]2CC[C@]2(C)[C@@H](O)CC[C@@H]12 [DHT, dihydrotestosterone] | most significant influence on the cell cycle | enhanced considerably | decrease

From PMC6591174, “The beneficial androgenic action of steroidal aromatase inactivators in estrogen-dependent breast cancer after failure of nonsteroidal drugs” (Cell Death & Disease, 2019)
